Target: T1, receptor BlaR-CTD (Bacillus licheniformis, UniProt P12287)
T1 construct: the receptor BlaR-CTD is the carboxy-terminal region of BlaR
Experiment: 3-minute rapid test: strip test for β-lactam antibiotics in milk using BlaR-CTD
Format: binding
Conditions: for Intensity 1st band: scale 0 to 10, reference band 6, 47° C., 1 min incubation + 2 min migration
Source text: According to a preferred embodiment of the invention an identifier is used which comprises a receptor sensitive to antibiotics having a β-lactam ring, which receptor is obtained from Bacillus licheniformis, such as the receptor BlaR or the receptor BlaR-CTD. The isolation and the peptide sequence of the protein BlaR are described in Y. Zhu et al., J. Bacteriol., 1137-1141 (1990); the receptor BlaR-CTD is the carboxy-terminal region of BlaR, whose isolation and peptide sequence are described in B. Joris et al., FEMS Microbiology Letters, 107-114 (1990).
This example illustrates the detection in milk of antibiotics having a β-lactam ring which are monitored by the health authorities. The test described in this example uses the receptor BlaR-CTD coupled with gold beads, which serve as labelling agents, and uses a support which is in the form of an assay device comprising a solid support on which membranes are fixed.
3.79 ml of a solution of recognition agent BlaR-CTD having a concentration of 6.6 mg/ml are taken up in a sodium phosphate buffer, 20 mM pH 7. To this solution of BlaR-CTD are then added 41.71 ml of bicarbonate buffer (0.1 M sodium bicarbonate, pH 9) and 2 ml of a solution of N-hydroxysuccinimide 6-(biotinamido)caproic ester containing 2.23 mg/ml likewise of bicarbonate buffer. This solution is stirred gently on a LABINCO stirrer for tubes on a rotary axis (available from VEL, Belgium) at a rate of 2 revolutions/minute for 2 hours at ambient temperature and away from light. 2.5 ml of a solution of Tris buffer, 1 M pH 8 are incubated with the reaction mixture under the same conditions for 30 minutes. The solution thus obtained is dialysed against HNM buffer (Hepes 100 mM, pH 8, NaCl 100 mM, MgCl2 50 mM) for 24 hours. In this way a biotinylated BlaR-CTD solution is obtained which is diluted in HNM-BSA buffer (Hepes 500 mM, pH 8, NaCl 500 mM, MgCl2 250 mM, BSA 10 mg/ml) to a concentration of 250 μg of biotinylated BlaR-CTD per ml of buffer. This solution is stored at −20° C.
The biotinylated BlaR-CTD solution prepared in Example 3.1.1 is diluted 114.7 times with the HNM-BSA buffer (Hepes 500 mM, pH 8, NaCl 500 mM, MgCl2 250 mM, BSA 10 mg/ml). At room temperature, 22.5 parts by volume of this dilute biotinylated BlaR-CTD solution, 7.5 parts by volume of HNM-BSA buffer, 9.27 parts by volume of the gold particle suspension used to label the biotinylated BlaR-CTD and 6 parts by volume of reference gold particle suspension are mixed (see Example 3.1.4 below).
The first capture substance makes it possible to fix the BlaR-CTD coupled with the gold beads present in excess relative to the quantity of antibiotic present in the sample.
Assay devices containing membranes (2), (3) and (4) are used, assembled in accordance with the procedure described in Example 1.1. The membrane (3) of these devices carries on the proximal side the capture substance described in Example 32.1. and on the distal side the capture substance described in Example 3.2.2. The capture substances were deposited in accordance with the procedure described in Example 1.2.
7 samples of fresh milk are prepared, containing 0; 1; 2; 3; 4; 5 and 6 ppb, respectively, of penicillin G. Each of these solutions is then analysed as follows.
An aliquot is taken of 200 μl of milk sample and 45.27 μl of solution prepared in Example 3.1.3, and is placed in a glass flask. This mixture is incubated at 47° C. for 1 minute. An assay device is taken and is placed vertically in the glass flask such that the first end of the assay device is in contact with the mixture and such that the second end rests on the wall of the glass flask. The mixture is allowed to migrate over the assay device while the assembly is incubated at 47° C. for 2 minutes.
An intensity value ranging from 0 to 10 is awarded to the bands detected, the value 10 being given to the most intense band and the value 0 being given to the least intense band. On this scale, a value of 6 is awarded to the reference band. […]

T1 sequence (P12287 340-601): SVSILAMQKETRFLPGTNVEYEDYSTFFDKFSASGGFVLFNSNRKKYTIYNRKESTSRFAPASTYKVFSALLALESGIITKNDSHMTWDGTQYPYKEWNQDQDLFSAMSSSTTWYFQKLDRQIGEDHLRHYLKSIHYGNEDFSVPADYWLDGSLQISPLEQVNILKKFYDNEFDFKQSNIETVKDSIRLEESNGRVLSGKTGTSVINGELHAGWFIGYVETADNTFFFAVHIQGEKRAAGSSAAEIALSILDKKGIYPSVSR

Question: Which results are given for `CC1(C)S[C@@H]2[C@H](NC(=O)Cc3ccccc3)C(=O)N2[C@H]1C(=O)O` [Penicillin G, penicillin G]?
Answer: Intensity 1st band (1 ppb penicillin G in fresh milk): 9; Intensity 1st band (2 ppb penicillin G in fresh milk): 9; Intensity 1st band (3 ppb penicillin G in fresh milk): 4; Intensity 1st band (4 ppb penicillin G in fresh milk): 0; Intensity 1st band (5 ppb penicillin G in fresh milk): 0; Intensity 1st band (6 ppb penicillin G in fresh milk): 0; lowest concentration detected in a milk sample (in 3 minutes, positive when first band is less intense than second band): less than 4 ppb
